Reference: the NIST ThermoML archive (doi:10.1016/j.jct.2007.11.010)

Assay: xn = mol fraction of the nth substance listed
Conditions: 101 kPa, Liquid

OCCN1CCOCC1 [4-morpholineethanol] + CCCCO
mass density [kg/m3]
Conditions	293.15 K	298.15 K	303.15 K	313.15 K	323.15 K
x1 = 0.0652	832.8	829	825.1	817.44	809.9
x1 = 0.1125	849.1	845.21	841.24	833.54	826.03
x1 = 0.1865	873.74	869.7	865.64	857.88	850.45
x1 = 0.2436	891.83	887.69	883.56	875.77	868.41
x1 = 0.2865	905.09	900.87	896.69	888.88	881.58
x1 = 0.3275	917.49	913.2	908.97	901.14	893.89
x1 = 0.3852	934.26	929.86	925.57	917.73	910.57
x1 = 0.4259	945.77	941.31	936.97	929.12	922.02
x1 = 0.4784	960.02	955.47	951.09	943.23	936.22
x1 = 0.5248	972.29	967.67	963.24	955.38	948.45
x1 = 0.5649	982.5	977.82	973.35	965.5	958.65
x1 = 0.6126	994.28	989.52	985.02	977.16	970.4
x1 = 0.6539	1004.15	999.34	994.8	986.96	980.27
x1 = 0.6898	1012.51	1007.64	1003.08	995.25	988.63
x1 = 0.7353	1022.74	1017.81	1013.21	1005.4	998.88
x1 = 0.7962	1035.87	1030.87	1026.23	1018.44	1012.05
x1 = 0.8367	1044.36	1039.31	1034.64	1026.87	1020.56
x1 = 0.8823	1053.64	1048.53	1043.84	1036.07	1029.88
x1 = 0.9248	1062.23	1057.07	1052.35	1044.62	1038.5
x1 = 0.9844	1073.74	1068.51	1063.75	1056.05	1050.07

OCCN1CCOCC1 [4-morpholineethanol] + CCCO
mass density [kg/m3]
Conditions	293.15 K	298.15 K	303.15 K	313.15 K	323.15 K
x1 = 0.0441	830.17	823.23	815.35	807.23	799.06
x1 = 0.1025	854.6	847.85	839.76	831.61	823.54
x1 = 0.1771	883.51	877.01	868.66	860.49	852.56
x1 = 0.2366	905.01	898.71	890.18	882	874.19
x1 = 0.2772	919.15	912.99	904.34	896.16	888.43
x1 = 0.3146	931.56	925.53	916.77	908.59	900.94
x1 = 0.3771	951.28	945.46	936.54	928.37	920.85
x1 = 0.4165	962.97	957.29	948.27	940.11	932.69
x1 = 0.478	980.28	974.81	965.64	957.51	950.23
x1 = 0.5135	989.72	984.38	975.14	967.02	959.82
x1 = 0.5792	1006.06	1000.96	991.58	983.5	976.47
x1 = 0.632	1018.06	1013.14	1003.67	995.64	988.74
x1 = 0.6797	1028.12	1023.38	1013.83	1005.84	999.07
x1 = 0.7337	1038.68	1034.12	1024.5	1016.57	1009.94
x1 = 0.7753	1046.19	1041.78	1032.12	1024.22	1017.71
x1 = 0.8136	1052.76	1048.48	1038.78	1030.93	1024.51
x1 = 0.8739	1062.19	1058.11	1048.36	1040.58	1034.34
x1 = 0.9145	1067.81	1063.88	1054.1	1046.38	1040.25
x1 = 0.9442	1071.98	1068.14	1058.34	1050.66	1044.61
x1 = 0.9742	1076.35	1072.61	1062.79	1055.14	1049.16
